Results on one compound are retold here after patent US20140243411A1 (priority 2011, published 2014).

SMILES strings stand for the structures. Marks after values point to notes of the source that are not given here.

This assay concerns rats contaminated with ^241Am. Nature of the assay: Radionuclide decorporation efficacy study in rats contaminated with 241Am (Example 10): excretion, tissue content, liver and skeleton burden. It counts as in vivo, SD rats. How it is done:
All animal studies were conducted according to a protocol approved by the University of North Carolina at Chapel Hill Institutional Animal Care and Use Committee (IACUC). Ten-week-old adult female SD rats weighing from 200 to 300 g were used in these studies (Charles River Labs, Raleigh, N.C.). Food and water were given ad libitum. The animal room was kept at a controlled temperature (23° C.) and light cycle (light exposure from 8 AM to 8 PM). For the duration of the study, the rats were housed in metabolic cages individually with daily urine and feces collection until euthanasia on Day 7.
To evaluate the efficacy of transdermal delivery of the C2E5 nonaqueous gel, a radionuclide decorporation efficacy study was conducted in rats contaminated with ^241Am. Adult female SD rats were anesthetized with 2-3% isoflurane. Dorsal skin between the cervical vertebrae and anterior thoracic vertebrae was clipped with caution before all animals were contaminated with [^241Am]-Americium nitrate solution (250 nCi, 0.1 mL) via an i.m. injection in anterior thigh muscle. The C2E5 nonaqueous gel was applied at dose of 1000 mg/kg using a cotton swap to a 6 cm^2 (2 cm×3 cm) area of the clipped dorsal region immediately after contamination. A jacket with plastic dorsal insert (VWR International) was placed on the rat to protect the gel application region. The mass of C2E5 gel applied was recorded for each animal to permit the actual dose determination. The animals were housed in metabolic cages individually after C2E5 treatment and were euthanized 7 days after contamination. Positive and negative controls included animals administered Ca-DTPA intravenously and animals without any treatment. The animals were observed once daily and their body weights recorded at pre-dose and prior to necropsy, Urine and feces were collected daily until euthanasia, when the liver, kidneys, both femurs and the muscle tissue from around the injection site were also collected. Cage washes were collected at the end of each experiment. As ˜35% of the decay of ^241Am is associated with photon emissions of 59.7 keV, ^241Am present in samples was quantified using a gamma counter (2470 Wizard 2, Perkin Elmer). The samples were counted for one minute using a 40-80 keV energy detection window and were background-corrected. Additionally, ^241Am activity was quantified in 2×0.1 mL aliquots of the dosing solution. For all samples, ^241Am content was expressed as a percentage of the initial dose.
where % ID represents the percent of injected dose. Where data for both femurs were available, an estimate of the total skeletal burden was made using the method of Volf with modification in which the counts in the contra-lateral femur were multiplied by 19 and added to the counts in the ipsi-lateral femur. The modification for the literature method was due to higher ^241Am content in ipsi-lateral femur as a result of i.m. injection in anterior thigh muscle.
Statistically significant differences among groups were determined using one-way ANOVA with Tukey's post hoc comparison. All measurements are expressed as mean±standard deviation (S.D.). The level of significance was set at p<0.05.

[1] abbreviates: rats, seven days following a single dose, Ca-DTPA 14 mg/kg i.v., C2E5 1000 mg/kg transdermal.
[2] abbreviates: seven days after single dose, Ca-DTPA 14 mg/kg i.v., C2E5 1000 mg/kg transdermal gel.

Consider `O=C([O-])CN(CCN(CC(=O)[O-])CC(=O)[O-])CCN(CC(=O)[O-])CC(=O)[O-].[Ca+2].[Na+].[Na+].[Na+]` [Ca-DTPA, reference compound], for which the “time of peak ^241Am excretion” value (14 mg/kg i.v.) is listed as at most 24 h. For the same compound, the “Skeleton Burden (% of ID)” value (contra-lateral femur × 19 + ipsi-lateral femur, rats, seven days following a single dose, Ca-DTPA 14 mg/kg i.v. (n = 3), C2E5 1000 mg/kg transdermal) is reported as 11.6 ± 2.2^b % of ID. Further, the “Ipsi-lateral femur content of 241Am” value (rats, seven days following a single dose, Ca-DTPA 14 mg/kg i.v. (one animal excluded), C2E5 1000 mg/kg transdermal) is recorded as 0.88 ± 0.18^c % of ID of ^241Am. Under setting [1], the “% of Reduction over control (liver burden)” value turned out to be 38.2%, the “% of Reduction over control (skeleton burden)” value was found to be 29.3%, the “Contra-lateral femur content of 241Am” value is given as 0.57 ± 0.09 % of ID of ^241Am and the “Kidney content of 241Am” value is reported as 0.55 ± 0.03 % of ID of ^241Am. Further, under setting [1], the “Liver Burden (% of ID)” value was 10.2 ± 2.7 % of ID, the “Liver content of 241Am” value is 10.2 ± 2.7 % of ID of ^241Am, the “Muscle-contra content of 241Am” value is 0.0054 ± 0.0028 % of ID of ^241Am per gram of muscle-contra and the “Muscle-ipsi content of 241Am” value is 40.0 ± 8.5 % of ID of ^241Am. Besides, under setting [1], the “Pelt at injection site content of 241Am” value was 0.43 ± 0.24 % of ID of ^241Am and the “Total decorporation (% of ID of 241Am)” value is 24.5 ± 3.5 % of ID of ^241Am. Under “seven days after single dose, Ca-DTPA 14 mg/kg i.v., C2E5 1000 mg/kg transdermal”, the “reduction of liver burden of ^241Am versus control group” value stood at 38.2%. Moreover, under setting [2], the “% of Enhanced decorporation over control” value amounted to 255.3%, the “Cumulative excretion of ^241Am In feces” value is given as 6.1 ± 1.1 % of ID, the “Cumulative excretion of ^241Am In urine” value was 18.3 ±2.5 % of ID and the “Cumulative excretion of ^241Am Total” value was 24.5 ± 3.5 % of ID.
